# ChEMBL document CHEMBL1121776, “Folate antagonists. 18. Synthesis and antimalarial effects of N6-(arylmethyl)-N6-methyl-2,4,6-pteridinetriamines and related N6,N6-disubstituted 2,4,6-pteridinetriamines” (1981)
# Tested on: Mus musculus
# Assay: Parenteral antimalarial effect against Plasmodium berghei in mice (Mus musculus) at a dose of 320 subcutaneous mg/kg; Number of mice (Mus musculus) surviving at 60 days post infection and cured 5/5
# Format: functional
# Details: not given
row,Structure (SMILES),MST [days]
1,CN(Cc1cccc2ccccc12)c1cnc2nc(N)nc(N)c2n1,5
2,CN(Cc1ccc2ccccc2c1)c1cnc2nc(N)nc(N)c2n1,5

# Tested on: Escherichia coli
# Assay: In vitro antibacterial effect against E. c. Vogel by using gradient plate test
# Format: functional
# Details: not given
row,Structure (SMILES),MIC [µg/mL]
1,CN(Cc1ccccc1Cl)c1cnc2nc(N)nc(N)c2n1,> 25
2,CN(Cc1ccc(Cl)c(Cl)c1)c1cnc2nc(N)nc(N)c2n1,> 25
3,CN(Cc1ccccc1)c1cnc2nc(N)nc(N)c2n1,10
4,CN(Cc1ccc(F)cc1)c1cnc2nc(N)nc(N)c2n1,> 25

# Tested on: Mus musculus
# Assay: Parenteral antimalarial effect against Plasmodium berghei in mice (Mus musculus) at a dose of 640 subcutaneously mg/kg
# Format: functional
# Details: not given
row,Structure (SMILES),MST [days]
1,CN(Cc1ccccc1)c1cnc2nc(N)nc(N)c2n1,0.3

# Tested on: Mycobacterium tuberculosis
# Assay: In vitro antibacterial effect against Mycobacterium tuberculosis H37Rv by using gradient plate test
# Format: functional
# Details: not given
row,Structure (SMILES),MIC [µg/mL]
1,CN(Cc1cccc2ccccc12)c1cnc2nc(N)nc(N)c2n1,> 25
2,CN(Cc1ccccc1Cl)c1cnc2nc(N)nc(N)c2n1,5
3,CN(Cc1ccc(Cl)c(Cl)c1)c1cnc2nc(N)nc(N)c2n1,10
4,CN(Cc1ccc2ccccc2c1)c1cnc2nc(N)nc(N)c2n1,> 25
5,CN(Cc1ccccc1)c1cnc2nc(N)nc(N)c2n1,10
6,CN(Cc1ccc(F)cc1)c1cnc2nc(N)nc(N)c2n1,2.5

# Tested on: Shigella sonnei
# Assay: In vitro antibacterial effect against Shigella sonnei C-10 by using gradient plate test
# Format: functional
# Details: not given
row,Structure (SMILES),MIC [µg/mL]
1,CN(Cc1cccc2ccccc12)c1cnc2nc(N)nc(N)c2n1,> 25
2,CN(Cc1ccccc1Cl)c1cnc2nc(N)nc(N)c2n1,> 25
3,CN(Cc1ccc(Cl)c(Cl)c1)c1cnc2nc(N)nc(N)c2n1,> 25
4,CN(Cc1ccc2ccccc2c1)c1cnc2nc(N)nc(N)c2n1,> 25
5,CN(Cc1ccccc1)c1cnc2nc(N)nc(N)c2n1,> 25
6,CN(Cc1ccc(F)cc1)c1cnc2nc(N)nc(N)c2n1,> 25

# Tested on: Mus musculus
# Assay: Parenteral antimalarial effect against Plasmodium berghei in mice (Mus musculus) at a dose of 20 mg/kg subcutaneously; Number of mice (Mus musculus) surviving at 60 days post infection and cured 2/5
# Format: functional
# Details: route subcutaneous
row,Structure (SMILES),MST [days]
1,CN(Cc1ccc2ccccc2c1)c1cnc2nc(N)nc(N)c2n1,2

# Tested on: Mus musculus
# Assay: Parenteral antimalarial effect against Plasmodium berghei in mice (Mus musculus) at a dose of 160 subcutaneously mg/kg
# Format: functional
# Details: not given
row,Structure (SMILES),MST [days]
1,CN(Cc1ccccc1)c1cnc2nc(N)nc(N)c2n1,0.1

# Tested on: Escherichia coli
# Assay: In vitro antibacterial effect against Escherichia coli Vogel by using gradient plate test
# Format: functional
# Details: not given
row,Structure (SMILES),MIC [µg/mL]
1,CN(Cc1cccc2ccccc12)c1cnc2nc(N)nc(N)c2n1,> 25
2,CN(Cc1ccc2ccccc2c1)c1cnc2nc(N)nc(N)c2n1,> 25

# Tested on: Mus musculus
# Assay: Parenteral antimalarial effect against Plasmodium berghei in mice (Mus musculus) at a dose of 10sc mg/kg
# Format: functional
# Details: not given
row,Structure (SMILES),MST [days]
1,CN(Cc1cccc2ccccc12)c1cnc2nc(N)nc(N)c2n1,4
2,CN(Cc1ccc(Cl)c(Cl)c1)c1cnc2nc(N)nc(N)c2n1,2.5
3,CN(Cc1ccc2ccccc2c1)c1cnc2nc(N)nc(N)c2n1,5.9

# Tested on: Mus musculus
# Assay: Parenteral antimalarial effect against Plasmodium berghei in mice (Mus musculus) at a dose of 320 mg/kg subcutaneously; Number of mice (Mus musculus) surviving at 60 days post infection and cured 3; No of toxic deaths 2
# Format: functional
# Details: route subcutaneous
row,Structure (SMILES),MST [days]
1,CN(Cc1ccccc1Cl)c1cnc2nc(N)nc(N)c2n1,3

# Tested on: Pseudomonas aeruginosa
# Assay: In vitro antibacterial effect against Pseudomonas aeruginosa 28 by using gradient plate test
# Format: functional
# Details: not given
row,Structure (SMILES),MIC [µg/mL]
1,CN(Cc1cccc2ccccc12)c1cnc2nc(N)nc(N)c2n1,> 25
2,CN(Cc1ccccc1Cl)c1cnc2nc(N)nc(N)c2n1,> 25
3,CN(Cc1ccc(Cl)c(Cl)c1)c1cnc2nc(N)nc(N)c2n1,> 25
4,CN(Cc1ccc2ccccc2c1)c1cnc2nc(N)nc(N)c2n1,> 25
5,CN(Cc1ccccc1)c1cnc2nc(N)nc(N)c2n1,> 25
6,CN(Cc1ccc(F)cc1)c1cnc2nc(N)nc(N)c2n1,> 25

# Tested on: Mus musculus
# Assay: Parenteral antimalarial effect against Plasmodium berghei in mice (Mus musculus) at a dose of 40 mg/kg subcutaneously
# Format: functional
# Details: route subcutaneous
row,Structure (SMILES),MST [days]
1,CN(Cc1ccccc1)c1cnc2nc(N)nc(N)c2n1,0.1

# Tested on: Mus musculus
# Assay: Parenteral antimalarial effect against Plasmodium berghei in mice (Mus musculus) at a dose of 320 mg/kg subcutaneously; 5/5
# Format: functional
# Details: route subcutaneous
row,Structure (SMILES),MST [days]
1,CN(Cc1ccc(Cl)c(Cl)c1)c1cnc2nc(N)nc(N)c2n1,5

# Tested on: Mus musculus
# Assay: Parenteral antimalarial effect against Plasmodium berghei in mice (Mus musculus) at a dose of 640 mg/kg subcutaneously; Number of mice (Mus musculus) surviving at 60 days post infection and cured 10/10
# Format: functional
# Details: route subcutaneous
row,Structure (SMILES),MST [days]
1,CN(Cc1cccc2ccccc12)c1cnc2nc(N)nc(N)c2n1,10
2,CN(Cc1ccc(Cl)c(Cl)c1)c1cnc2nc(N)nc(N)c2n1,10
3,CN(Cc1ccc2ccccc2c1)c1cnc2nc(N)nc(N)c2n1,10
4,CN(Cc1ccc(F)cc1)c1cnc2nc(N)nc(N)c2n1,10

# Tested on: Staphylococcus aureus
# Assay: In vitro antibacterial effect against Staphylococcus aureus S18713 by using gradient plate test
# Format: functional
# Details: not given
row,Structure (SMILES),MIC [µg/mL]
1,CN(Cc1cccc2ccccc12)c1cnc2nc(N)nc(N)c2n1,< 0.25
2,CN(Cc1ccccc1Cl)c1cnc2nc(N)nc(N)c2n1,< 0.25
3,CN(Cc1ccc(Cl)c(Cl)c1)c1cnc2nc(N)nc(N)c2n1,< 0.25
4,CN(Cc1ccc2ccccc2c1)c1cnc2nc(N)nc(N)c2n1,< 0.25
5,CN(Cc1ccccc1)c1cnc2nc(N)nc(N)c2n1,< 0.25
6,CN(Cc1ccc(F)cc1)c1cnc2nc(N)nc(N)c2n1,< 0.25

# Tested on: Staphylococcus aureus
# Assay: In vitro antibacterial effect against Staphylococcus aureus UC-76 by using gradient plate test
# Format: functional
# Details: not given
row,Structure (SMILES),MIC [µg/mL]
1,CN(Cc1cccc2ccccc12)c1cnc2nc(N)nc(N)c2n1,< 0.25
2,CN(Cc1ccccc1Cl)c1cnc2nc(N)nc(N)c2n1,< 0.25
3,CN(Cc1ccc(Cl)c(Cl)c1)c1cnc2nc(N)nc(N)c2n1,< 0.25
4,CN(Cc1ccc2ccccc2c1)c1cnc2nc(N)nc(N)c2n1,< 0.25
5,CN(Cc1ccccc1)c1cnc2nc(N)nc(N)c2n1,< 0.25
6,CN(Cc1ccc(F)cc1)c1cnc2nc(N)nc(N)c2n1,< 0.25

# Tested on: Mus musculus
# Assay: Parenteral antimalarial effect against Plasmodium berghei in mice (Mus musculus) at a dose of 160 mg/kg subcutaneously; Number of mice (Mus musculus) surviving at 60 days post infection and cured 8/10
# Format: functional
# Details: route subcutaneous
row,Structure (SMILES),MST [days]
1,CN(Cc1ccc(F)cc1)c1cnc2nc(N)nc(N)c2n1,8

# Tested on: Mus musculus
# Assay: Parenteral antimalarial effect against Plasmodium berghei in mice (Mus musculus) at a dose of 20sc mg/kg
# Format: functional
# Details: not given
row,Structure (SMILES),MST [days]
1,CN(Cc1cccc2ccccc12)c1cnc2nc(N)nc(N)c2n1,5
2,CN(Cc1ccccc1Cl)c1cnc2nc(N)nc(N)c2n1,9.5
3,CN(Cc1ccc(Cl)c(Cl)c1)c1cnc2nc(N)nc(N)c2n1,10.6
4,CN(Cc1ccc(F)cc1)c1cnc2nc(N)nc(N)c2n1,8.5

# Tested on: Mus musculus
# Assay: Parenteral antimalarial effect against Plasmodium berghei in mice (Mus musculus) at a dose of 160 mg/kg subcutaneously; Number of mice (Mus musculus) surviving at 60 days post infection and cured 10/10
# Format: functional
# Details: route subcutaneous
row,Structure (SMILES),MST [days]
1,CN(Cc1cccc2ccccc12)c1cnc2nc(N)nc(N)c2n1,10
2,CN(Cc1ccc2ccccc2c1)c1cnc2nc(N)nc(N)c2n1,10

# Tested on: Enterococcus faecalis
# Assay: In vitro antibacterial effect against Streptococcus faecalis MGH-2
# Format: functional
# Details: not given
row,Structure (SMILES),MIC [µg/mL]
1,CN(Cc1cccc2ccccc12)c1cnc2nc(N)nc(N)c2n1,< 0.25
2,CN(Cc1ccccc1Cl)c1cnc2nc(N)nc(N)c2n1,< 0.25
3,CN(Cc1ccc(Cl)c(Cl)c1)c1cnc2nc(N)nc(N)c2n1,< 0.25
4,CN(Cc1ccc2ccccc2c1)c1cnc2nc(N)nc(N)c2n1,< 0.25
5,CN(Cc1ccccc1)c1cnc2nc(N)nc(N)c2n1,< 0.25
6,CN(Cc1ccc(F)cc1)c1cnc2nc(N)nc(N)c2n1,< 0.25

# Tested on: Mus musculus
# Assay: Parenteral antimalarial effect against Plasmodium berghei in mice (Mus musculus) at a dose of 160 mg/kg subcutaneously; Number of mice (Mus musculus) surviving at 60 days post infection and cured 6/10
# Format: functional
# Details: route subcutaneous
row,Structure (SMILES),MST [days]
1,CN(Cc1ccccc1Cl)c1cnc2nc(N)nc(N)c2n1,6

# Tested on: Mus musculus
# Assay: Parenteral antimalarial effect against Plasmodium berghei in mice (Mus musculus) at a dose of 160 mg/kg subcutaneously 10/10
# Format: functional
# Details: route subcutaneous
row,Structure (SMILES),MST [days]
1,CN(Cc1ccc(Cl)c(Cl)c1)c1cnc2nc(N)nc(N)c2n1,10
